Data: patent publication US10913736B2 (UNIVERSITY OF WASHINGTON, priority 2014, dated 2021)
In brackets after ≈: the same amount, converted by molar mass. Several values for one entry are separate records, joined by “and”; a condition that tells them apart may be missing. Identical values can stand only once. Like-named read-outs stand apart in the source and are kept apart here.

Tests used:
T. brucei = assay: Growth inhibition assay of T. brucei cell cultures (Alamar Blue, 48 h); type: cell-based
T. cruzi = T. cruzi growth inhibition EC50; type: cell-based
L. amaz = L. amaz growth inhibition EC50; type: cell-based; settings: read-out: F) L. amaz EC50
MetRS (T. brucei) = MetRS (T. brucei) (Trypanosoma brucei brucei, UniProt Q38C91); assay: MetRS (T. brucei) ATP depletion assay using Kinase-Glo; type: biochemical
MetRS (T. brucei), sequence (Q38C91 entry or part of it): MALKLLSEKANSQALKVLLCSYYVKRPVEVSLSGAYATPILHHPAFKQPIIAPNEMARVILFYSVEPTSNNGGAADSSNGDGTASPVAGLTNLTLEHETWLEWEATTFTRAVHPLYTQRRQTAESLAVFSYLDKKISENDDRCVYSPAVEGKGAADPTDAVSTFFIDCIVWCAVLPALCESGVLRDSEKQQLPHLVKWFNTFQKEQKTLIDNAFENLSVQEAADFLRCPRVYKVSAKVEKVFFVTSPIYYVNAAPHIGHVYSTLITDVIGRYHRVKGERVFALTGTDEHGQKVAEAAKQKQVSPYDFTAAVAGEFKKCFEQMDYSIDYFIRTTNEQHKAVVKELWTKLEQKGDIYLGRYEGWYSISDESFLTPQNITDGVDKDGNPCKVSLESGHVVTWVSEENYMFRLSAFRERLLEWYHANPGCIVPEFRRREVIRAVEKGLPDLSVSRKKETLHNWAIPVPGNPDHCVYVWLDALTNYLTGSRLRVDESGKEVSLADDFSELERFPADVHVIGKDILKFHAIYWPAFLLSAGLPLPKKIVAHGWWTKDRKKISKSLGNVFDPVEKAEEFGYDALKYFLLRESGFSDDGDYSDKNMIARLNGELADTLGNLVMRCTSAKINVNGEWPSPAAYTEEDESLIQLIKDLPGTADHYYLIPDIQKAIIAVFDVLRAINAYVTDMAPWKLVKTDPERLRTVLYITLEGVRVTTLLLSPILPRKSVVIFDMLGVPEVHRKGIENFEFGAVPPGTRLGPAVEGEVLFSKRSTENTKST

MetRS (Giardia) = MetRS (Giardia) (Giardia intestinalis, UniProt A8BY75); assay: biochemical; settings: read-out: D) MetRS (Giardia) aminoacylation assay with modified cpd dilution method IC50
MetRS (Giardia), sequence (A8BY75 entry or part of it): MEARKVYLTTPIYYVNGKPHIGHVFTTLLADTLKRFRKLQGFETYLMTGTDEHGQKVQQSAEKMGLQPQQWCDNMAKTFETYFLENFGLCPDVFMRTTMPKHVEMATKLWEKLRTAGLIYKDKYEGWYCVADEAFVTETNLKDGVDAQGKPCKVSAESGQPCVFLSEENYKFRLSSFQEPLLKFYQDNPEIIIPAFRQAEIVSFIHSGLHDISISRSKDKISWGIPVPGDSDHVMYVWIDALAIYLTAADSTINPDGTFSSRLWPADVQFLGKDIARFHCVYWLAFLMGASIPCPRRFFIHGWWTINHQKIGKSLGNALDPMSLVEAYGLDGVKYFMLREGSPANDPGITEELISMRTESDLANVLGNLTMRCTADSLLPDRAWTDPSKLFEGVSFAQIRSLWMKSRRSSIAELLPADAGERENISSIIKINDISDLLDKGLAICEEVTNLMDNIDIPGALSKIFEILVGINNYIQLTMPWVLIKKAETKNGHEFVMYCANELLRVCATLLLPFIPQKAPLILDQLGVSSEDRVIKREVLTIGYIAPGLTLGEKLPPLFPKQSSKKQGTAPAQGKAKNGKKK

E. faecium (ATCC 51559) = E. faecium (ATCC 51559) MIC/EC50; type: cell-based
MetRS (S. aureus) = MetRS (S. aureus) (Staphylococcus aureus, UniProt Q5HII6); assay: biochemical; settings: ATP depletion, Kinase-Glo; read-out: H) MetRS (S. aureus) ATP depletion assay using Kinase-Glo with modified cpd dilution method, IC50
MetRS (S. aureus), sequence (Q5HII6 whole entry): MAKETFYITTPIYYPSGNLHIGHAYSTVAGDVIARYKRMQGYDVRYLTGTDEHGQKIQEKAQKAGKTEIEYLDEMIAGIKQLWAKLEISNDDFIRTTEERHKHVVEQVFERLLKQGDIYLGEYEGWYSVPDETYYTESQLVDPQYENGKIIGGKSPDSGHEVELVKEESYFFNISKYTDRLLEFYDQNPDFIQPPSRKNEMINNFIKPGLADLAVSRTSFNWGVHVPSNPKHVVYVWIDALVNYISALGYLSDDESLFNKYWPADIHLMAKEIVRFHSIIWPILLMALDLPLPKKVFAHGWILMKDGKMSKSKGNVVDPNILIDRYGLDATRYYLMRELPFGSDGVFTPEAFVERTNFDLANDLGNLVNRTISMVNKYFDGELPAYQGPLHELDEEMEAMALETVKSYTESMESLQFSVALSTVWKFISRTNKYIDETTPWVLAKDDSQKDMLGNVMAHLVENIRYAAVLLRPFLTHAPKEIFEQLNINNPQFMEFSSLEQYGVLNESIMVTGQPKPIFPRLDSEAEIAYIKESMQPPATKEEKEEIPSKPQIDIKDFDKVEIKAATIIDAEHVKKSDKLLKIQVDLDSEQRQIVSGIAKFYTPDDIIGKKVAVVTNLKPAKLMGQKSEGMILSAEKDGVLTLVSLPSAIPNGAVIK

P. fal (3D37) = P. fal (3D37) growth inhibition EC50; type: cell-based; settings: read-out: G) P. fal (3D37) EC50
E. faecalis (ATCC 29212) = E. faecalis (ATCC 29212) MIC/EC50; type: cell-based
[1] = tested on: S. aureus MRSA (ATCC 43300); assay: S. aureus MRSA (ATCC 43300) MIC/EC50; type: cell-based; settings: Staphylococcus aureus; S. aureus MRSA ATCC 43300; read-out: J) S. aureus MRSA (ATCC 43300) MIC/EC50, MIC
S. aureus (ATCC 29213) = S. aureus (ATCC 29213) MIC/EC50; type: cell-based; settings: Staphylococcus aureus, ATCC29213; S. aureus ATCC 29213; read-out: I) S. aureus (ATCC 29213) MIC/EC50, MIC
[2] = tested on: Giardia intestinalis (ATCC 50580); assay: Giardia intestinalis (ATCC 50580) growth inhibition EC50; type: cell-based
[3] = Trypanosoma cruzi; read-out: C) T. cruzi EC50
[4] = Giardia duodenalis, ATCC50580; read-out: E) Giardia intestinalis (ATCC 50580) EC50
[5] = read-out: E) Giardia intestinalis (ATCC 50580) EC50

Row | Structure (SMILES) | EC50 (T. brucei; Trypanosoma brucei; read-out: B) T. brucei EC50) [nM] | EC50 (T. brucei; read-out: B) T. brucei EC50) [nM] | EC50 (T. cruzi; [3]) [nM] | EC50 (L. amaz) [nM] | IC50 (MetRS (T. brucei)) [nM] | IC50 (MetRS (Giardia)) [nM] | L) E. faecium (ATCC 51559) MIC/EC50, MIC (E. faecium (ATCC 51559)) [µg/mL] | IC50 (MetRS (S. aureus)) [nM] | EC50 (P. fal (3D37)) [nM] | K) E. faecalis (ATCC 29212) MIC/EC50, MIC (E. faecalis (ATCC 29212)) | EC50 (T. cruzi; read-out: C) T. cruzi EC50) [nM] | MIC [1] [µg/mL] | MIC (S. aureus (ATCC 29213)) [µg/mL] | EC50 [2, 4] [nM] | EC50 [2, 5] [nM]
1 | Clc1cc(Cl)cc(CNCCCNc2nc3ncccc3[nH]2)c1 [Compound 1575, N1-(3,5-dichlorobenzyl)-N3-(1H-imidazo[4,5-b]pyridin-2-yl)propane-1,3-diamine] | 9.36 | 7.64 | 193 | > 10000 | 9 | 36 | 0.625 | 35 | 7010 |  |  |  |  |  | 
2 | Fc1ccc2nc(NCCCN[C@@H]3CCNc4c(Cl)cc(Cl)cc43)[nH]c2n1 [Compound 1717, (4R)-6,8-dichloro-N-[3-({5-fluoro-3H-imidazo[4,5-b]pyridin-2-yl}amino)propyl]-1,2,3,4-tetrahydroquinolin-4-amine] |  |  | > 4.57 | 2850 | 28 | 3 | >0.04 | 28 |  | > 0.04 µg/mL and 0.079 µg/mL | 3.72 | 0.157 (≈ 0.384 µM) | 0.157 (≈ 0.384 µM) | 590 | 316
3 | Fc1ccc2nc(NCCCNCc3cc(Cl)cc(Cl)c3)[nH]c2n1 [Compound 1614, [(3,5-dichlorophenyl)methyl][3-({5-fluoro-3H-imidazo[4,5-b]pyridin-2-yl}amino)propyl]amine] |  |  | 39.5 | > 1000 | 16 | 9 | 1.25 | 37 | 7710 | 0.625 µg/mL | 35.7 |  | 1.25 (≈ 3.39 µM) | 3420 | 1980
